These results are taken from patent publication US20230382870A1, “N-AROMATIC AMIDE COMPOUNDS, PREPARATION METHODS AND USES THEREOF” (SHENZHEN EDK PHARMACEUTICAL TECHNOLOGY CO., LTD., priority 2021, published 2023).

The target in this experiment is androgen receptor (Rattus norvegicus (Rat), UniProt P15207). Briefly: Androgen receptor competition binding with radiolabeled dihydrotestosterone (hydroxyapatite separation, scintillation counting). Conditions: androgen receptor from prostate of male SD rats; competition with radiolabeled DHT; 4 Celsius degrees, 15 hours. The procedure: Reagents and instruments: radiolabeled dihydrotestosterone […] and unlabelled dihydrotestosterone (DHT) purchased from Sigma-Aldrich (St. Louis, Mo.), scintillation solution purchased from Perkin Elmer Life Sciences (Boston, Mass.), hydroxyapatite (HAP) suspension purchased from Bio-Rad Laboratories (Hercules, Calif.), buffer (containing 10 mM Tris, 1.5 mM disodium EDTA, 0.25 M sucrose, 10 mM sodium molybdate and 1 mM PMSF, pH value adjusted to 7.4), and hydroxyapatite (HAP) solution (containing 50 mM Tris and 1 mM KH2PO4, pH value adjusted to 7.4).
Chain of androgen receptor (P15207 whole entry S389L): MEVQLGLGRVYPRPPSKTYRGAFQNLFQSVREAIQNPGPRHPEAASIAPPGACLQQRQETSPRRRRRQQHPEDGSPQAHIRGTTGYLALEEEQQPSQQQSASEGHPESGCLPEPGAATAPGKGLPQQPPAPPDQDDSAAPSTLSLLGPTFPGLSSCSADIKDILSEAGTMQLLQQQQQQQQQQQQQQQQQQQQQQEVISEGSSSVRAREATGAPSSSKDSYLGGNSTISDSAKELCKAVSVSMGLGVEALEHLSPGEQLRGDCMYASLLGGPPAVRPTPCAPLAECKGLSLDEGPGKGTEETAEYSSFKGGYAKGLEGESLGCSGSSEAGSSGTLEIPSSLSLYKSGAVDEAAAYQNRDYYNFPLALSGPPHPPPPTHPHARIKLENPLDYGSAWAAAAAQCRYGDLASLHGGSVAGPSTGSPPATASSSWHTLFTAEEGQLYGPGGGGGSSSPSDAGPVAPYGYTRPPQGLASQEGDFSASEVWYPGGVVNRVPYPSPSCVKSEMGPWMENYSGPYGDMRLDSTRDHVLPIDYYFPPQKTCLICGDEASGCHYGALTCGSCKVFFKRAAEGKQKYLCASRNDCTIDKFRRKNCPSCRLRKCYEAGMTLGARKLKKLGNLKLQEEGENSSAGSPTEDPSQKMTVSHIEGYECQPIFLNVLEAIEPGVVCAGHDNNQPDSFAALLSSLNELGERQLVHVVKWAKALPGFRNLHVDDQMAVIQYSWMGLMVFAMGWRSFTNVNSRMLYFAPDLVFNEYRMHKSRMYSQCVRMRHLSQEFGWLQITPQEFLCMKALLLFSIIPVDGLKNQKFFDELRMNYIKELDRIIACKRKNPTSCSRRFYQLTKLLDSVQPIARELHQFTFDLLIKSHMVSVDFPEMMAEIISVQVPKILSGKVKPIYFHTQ
In the present invention, the biological activity of the N-aromatic amide compounds with the formula (I) and/or (II) is measured accord to the following method. […] The androgen receptor (prepared from the prostate of male SD rats, 200-250 g of male Sprague-Dawley rats) and the radiolabeled dihydrotestosterone ([…], 84 Ci/mmol) are added to the buffer and well mixed for preparing reaction solution. The concentration gradients of the diluted compounds are respectively added into the reaction solution and well mixed, and the resulting mixtures are incubated at 4 Celsius degrees for 15 hours, so that the compounds and the dihydrotestosterone can fully react with the androgen receptor. Thereafter, the hydroxyapatite (HAP) suspension is added therein, well mixed, incubated for 10 minutes at 4 Celsius degrees, and centrifuged for removing the supernatant containing free dihydrotestosterone. The dihydrotestosterone bound to the androgen receptor is adsorbed in the hydroxyapatite and thus retained in the precipitated particles, thereby separating the bound and unbound radiolabelled ligands. A scintillation solution is added to the precipitate, well mixed, and detected for the radioactivity intensity using a WALLACE MicroBeta Trilux Scintillator (Perkin Elmer).The detected radioactivity intensity values for the concentration gradients are processed to obtain values of ICso and K. The specific biological activity (the competition results between androgen receptor ligand and radioligand) is shown in the following table: […]
For the compound `CC(C)(C(=O)Nc1ccc(C#N)c(C(F)(F)F)c1)n1ccc2c(F)cc(-c3ccc(F)cc3)cc21` [Example 1, N-(4-cyano-3-trifluoromethyl)-phenyl-2-[4-fluoro-6-(4-fluorophenyl)-1H-indolyl-1-yl]-2-methylpropanamide], the IC50 (usually the point on the concentration scale where inhibition reaches its midpoint) came to 546 nM.
As to `CC(C)(C(=O)Nc1ccc(C#N)c(C(F)(F)F)c1)n1ccc2cc(F)c(-c3ccccc3)cc21` [Example 2, N-(4-cyano-3-trifluoromethyl) phenyl-2-(5-fluoro-6-phenyl-1H-indolyl-1-yl)-2-methylpropanamide], the concentration for half-maximal inhibition (IC50) was 337 nM.
As to `CC(C)(C(=O)Nc1ccc(C#N)c(C(F)(F)F)c1)n1ccc2cc(F)ccc21` [Example 3, N-(4-cyano-3-trifluoromethyl)-phenyl-2-(5-fluoro-1H-indolyl-1-yl)-2-methylpropanamide], the IC50 was found to be 215 nM and the inhibitory constant (Ki) (usually the equilibrium dissociation constant of an inhibitor or competing ligand from its target) was found to be 367 nM.
For `CC(C)(C(=O)Nc1ccc(C#N)c(C(F)(F)F)c1)n1ccc2c(F)cccc21` [Example 4, N-(4-cyano-3-trifluoromethyl)-phenyl-2-(4-fluoro-1H-indolyl-1-yl)-2-methylpropanamide], the concentration for half-maximal inhibition (IC50) was found to be 246 nM and the inhibition constant Ki came out at 491 nM.
For `CC(C)(C(=O)Nc1ccc(C#N)c(C(F)(F)F)c1)n1ccc2ccc(F)cc21` [Example 5, N-(4-cyano-3-trifluoromethyl)-phenyl-2-(6-fluoro-1H-indolyl-1-yl)-2-methylpropanamide] the same measures were 227 nM and 314 nM.
For `CC(C)(C(=O)Nc1ccc(C#N)c(C(F)(F)F)c1)n1ccc2cc([N+](=O)[O-])ccc21` [Example 6, N-(4-cyano-3-trifluoromethyl)-phenyl-2-(5-nitro-1H-indolyl-1-yl)-2-methylpropanamide] the same measures were 261 nM and 421 nM.
For `CC(C)(C(=O)Nc1ccc(C#N)c(C(F)(F)F)c1)n1ccc2cc(C(F)(F)F)ccc21` [Example 8, N-(4-cyano-3-trifluoromethyl)-phenyl-2-(5-trifluoromethyl-1H-indolyl-1-yl)-2-methylpropanamide] the same measures were 357 nM and 440 nM.
The compound `CC(C)(C(=O)Nc1ccc(C#N)c(C(F)(F)F)c1)n1ccc2cc(C#N)ccc21` [Example 9, N-(4-cyano-3-trifluoromethyl)-phenyl-2-(5-cyano-1H-indolyl-1-yl)-2-methylpropanamide] returned an IC50 of 232 nM and an inhibition constant Ki of 445 nM.
The corresponding values for `CC(C)(C(=O)Nc1ccc(C#N)c(C(F)(F)F)c1)N1CCc2cc(F)ccc21` [Example 10, N-(4-cyano-3-trifluoromethyl)-phenyl-2-(5-fluoro-1H-2,3-dihydroindolyl-1-yl)-2-methylpropanamide] are 437 nM and 387 nM.
`CC(C)(C(=O)Nc1ccc(C#N)c(C(F)(F)F)c1)N1CCc2cc(F)c(F)cc21` [Example 11, N-(4-cyano-3-trifluoromethyl)-phenyl-2-(5,6-difluoro-1H-2,3-dihydroindolyl-1-yl)-2-methylpropanamide] registered a half-inhibitory concentration (IC50) of 505 nM and a Ki of 505 nM.
Consider `CC(C)(C(=O)Nc1ccc(C#N)c(Cl)c1)n1ccc2cc(F)ccc21` [Example 12, N-(3-chloro-4-cyano) phenyl-2-(5-fluoro-1H-indolyl-1-yl)-2-methylpropanamide], for which the half-maximal inhibitory concentration (IC50) came to 205 nM and the Ki is 351 nM.
`CC(C)(C(=O)Nc1ccc(C#N)c(C(F)(F)F)c1)n1cc(-c2ccc(F)cc2)c(F)n1` [Example 13, N-(4-cyano-3-trifluoromethyl)-phenyl-2-[3-fluoro-4-(4-fluorophenyl)-1H-pyrazolyl-1-yl]-2-methylpropanamide] showed a 50% inhibitory concentration (IC50) of 416 nM.
Same read-out and setting: to `CC(C)(C(=O)Nc1ccc(C#N)c(C(F)(F)F)c1)n1cc(-c2ccc(F)cc2)cn1` [Example 14, N-(4-cyano-3-trifluoromethyl)-phenyl-2-[4-(4-fluorophenyl)-1H-pyrazolyl-1-yl]-2-methylpropanamide] belongs 760 nM; to `CC(C)(C(=O)Nc1ccc(C#N)c(C(F)(F)F)c1)n1cc(F)cn1` [Example 15, N-(4-cyano-3-trifluoromethyl)-phenyl-2-(4-fluoro-1H-pyrazolyl-1-yl)-2-methylpropanamide], 125 nM.
Still for that read-out and setting: to `CC(C)(C(=O)Nc1ccc(C#N)c(C(F)(F)F)c1)n1ccc(F)n1` [Example 16, N-(4-cyano-3-trifluoromethyl)-phenyl-2-(3-fluoro-1H-pyrazolyl-1-yl)-2-methylpropanamide] belongs 147 nM; to `CC(C)(C(=O)Nc1ccc(C#N)c(C(F)(F)F)c1)n1cc(Cl)cn1` [Example 17, N-(4-cyano-3-trifluoromethyl)-phenyl-2-(4-chloro-1H-pyrazolyl-1-yl)-2-methylpropanamide], 116 nM.
Still for that read-out and setting: in the case of `CC(C)(C(=O)Nc1cnc(C#N)c(C(F)(F)F)c1)n1cc(F)cn1` [Example 22] it was 73 nM; in that of `N#Cc1ccc(NC(=O)C2(n3cc(F)cn3)CCC2)cc1C(F)(F)F` [Example 23, N-(4-cyano-3-trifluoromethyl)-phenyl-1-(4-fluoro-1H-pyrazolyl-1-yl)-cyclobutane-formamide], 115 nM; in that of `N#Cc1ncc(NC(=O)C2(n3cc(F)cn3)CCC2)cc1C(F)(F)F` [Example 24, N-(6-cyano-5-trifluoromethyl-pyridyl-3-yl)-1-(4-fluoro-1H-pyrazolyl-1-yl) -cyclobutane-formamide], 68 nM.
Consider `CC(C)(C(=O)Nc1ccc(C#N)c(C(F)(F)F)c1)n1cc(Br)c(F)n1` [Example 25, 2-(4-bromo-3-fluoro-1H-pyrazolyl-1-yl)-N-(4-cyano-3-trifluoromethyl)-phenyl-2-methylpropanamide], for which the IC50 worked out at 91 nM.
In the case of `CC(C)(C(=O)Nc1ccc(C#N)c(C(F)(F)F)c1)n1cc(F)c(F)n1` [Example 26, 2-(3,4-difluoro-1H-pyrazolyl-1-yl)-N-(4-cyano-3-trifluoromethyl)-phenyl-2-methylpropanamide], the IC50 came to 75 nM.
In turn, `CC(C)(C(=O)Nc1ccc(C#N)c(C(F)(F)F)c1)n1cc(Cl)c(F)n1` [Example 29, 2-(3-fluoro-4-chloro-1H-pyrazolyl-1-yl)-N-(4-cyano-3-trifluoromethyl)-phenyl-2-methylpropanamide] yielded an IC50 of 105 nM.
On the same count and under the same terms, to `CC(C)(C(=O)Nc1ccc(C#N)c(C(F)(F)F)c1)n1cc(C#N)c(Cl)n1` [Example 30, 2-(3-chloro-4-cyano-1H-pyrazolyl-1-yl)-N-(4-cyano-3-trifluoromethyl)-phenyl-2-methylpropanamide] belongs 88 nM.
